Data as given in the CheMixHub viscosity set.

Assay: xn = mol fraction of the nth substance listed

CCCCC(CC)COP(=O)(O)OCC(CC)CCCC (stereo not drawn) + Cc1ccccc1C
viscosity [mPa·s], 101 kPa
Conditions	x1 = 0.1	x1 = 0.2	x1 = 0.398	x1 = 0.606	x1 = 0.796	x1 = 0.9
303.15 K	1.039	2.217	8.93	29.43	77.84	124.5
308.15 K	0.981	2.056	7.798	24.38	61.89	96.93
313.15 K	0.915	1.88	6.923	20.18	48.95	76.04
318.15 K	0.867	1.743	5.965	18.03	41.55	63.57

C[N+](=O)[O-] + c1ccccc1
Conditions	viscosity [mPa·s]
293.15 K, 101.33 kPa, x1 = 0.0919	0.627
293.15 K, 101.33 kPa, x1 = 0.2238	0.606
293.15 K, 101.33 kPa, x1 = 0.2978	0.597
293.15 K, 101.33 kPa, x1 = 0.3994	0.587
293.15 K, 101.33 kPa, x1 = 0.494	0.582
293.15 K, 101.33 kPa, x1 = 0.7053	0.585
293.15 K, 101.33 kPa, x1 = 0.8004	0.595
293.15 K, 101.33 kPa, x1 = 0.9073	0.62
298.15 K, 101 kPa, x1 = 0.1559	0.5732
298.15 K, 101 kPa, x1 = 0.294	0.5584
298.15 K, 101 kPa, x1 = 0.4165	0.5532
298.15 K, 101 kPa, x1 = 0.5262	0.5534
298.15 K, 101 kPa, x1 = 0.6247	0.5571
298.15 K, 101 kPa, x1 = 0.7142	0.5652
298.15 K, 101 kPa, x1 = 0.7953	0.577
298.15 K, 101 kPa, x1 = 0.8693	0.5909
298.15 K, 101 kPa, x1 = 0.9376	0.6098
298.15 K, 101 kPa, x2 = 0.1005	0.6116
298.15 K, 101 kPa, x2 = 0.2025	0.5886
298.15 K, 101 kPa, x2 = 0.3017	0.5772
298.15 K, 101 kPa, x2 = 0.4012	0.5724
298.15 K, 101 kPa, x2 = 0.5019	0.5707
298.15 K, 101 kPa, x2 = 0.6014	0.5751
298.15 K, 101 kPa, x2 = 0.7074	0.5817
298.15 K, 101 kPa, x2 = 0.7985	0.5905
298.15 K, 101 kPa, x2 = 0.8947	0.6035
303.15 K, 101 kPa, x2 = 0.1005	0.5803
303.15 K, 101 kPa, x2 = 0.2025	0.5594
303.15 K, 101 kPa, x2 = 0.3017	0.5479
303.15 K, 101 kPa, x2 = 0.4012	0.5438
303.15 K, 101 kPa, x2 = 0.5019	0.5405
303.15 K, 101 kPa, x2 = 0.6014	0.5447
303.15 K, 101 kPa, x2 = 0.7074	0.5475
303.15 K, 101 kPa, x2 = 0.7985	0.556
303.15 K, 101 kPa, x2 = 0.8947	0.5662
308.15 K, 101 kPa, x2 = 0.1005	0.5518
308.15 K, 101 kPa, x2 = 0.2025	0.5299
308.15 K, 101 kPa, x2 = 0.3017	0.5201
308.15 K, 101 kPa, x2 = 0.4012	0.5142
308.15 K, 101 kPa, x2 = 0.5019	0.512
308.15 K, 101 kPa, x2 = 0.6014	0.5126
308.15 K, 101 kPa, x2 = 0.7074	0.5157
308.15 K, 101 kPa, x2 = 0.7985	0.5234
308.15 K, 101 kPa, x2 = 0.8947	0.5309
313.15 K, 101 kPa, x2 = 0.1005	0.5218
313.15 K, 101 kPa, x2 = 0.2025	0.5031
313.15 K, 101 kPa, x2 = 0.3017	0.4923
313.15 K, 101 kPa, x2 = 0.4012	0.4862
313.15 K, 101 kPa, x2 = 0.5019	0.4829
313.15 K, 101 kPa, x2 = 0.6014	0.4843
313.15 K, 101 kPa, x2 = 0.7074	0.4865
313.15 K, 101 kPa, x2 = 0.7985	0.4912
313.15 K, 101 kPa, x2 = 0.8947	0.4977

Cc1cccc(O)c1 + Nc1ccccc1
298.15 K, 101 kPa
Conditions	viscosity [mPa·s]
x1 = 0.3	6.799
x1 = 0.374	8.194
x1 = 0.461	9.622
x1 = 0.549	11.12
x1 = 0.631	12.2
x1 = 0.778	12.31

CCC1(C)OC1C#N (stereo not drawn) + ClC(Cl)(Cl)Cl
viscosity [mPa·s], 101 kPa
Conditions	293.15 K	298.15 K	303.15 K	313.15 K	323.15 K
x1 = 0.0076	0.977	0.906	0.875	0.75	0.646
x1 = 0.008	0.983	0.938	0.873	0.776	0.698
